The results in this text go back to ChEMBL document CHEMBL1145603, “Evaluation of antiangiogenic activity of azumamides by the in vitro vascular organization model using mouse induced pluripotent stem (iPS) cells” (Bioorg Med Chem Lett, 2008).

One assay concerns HeLa. As to the kind of experiment: Induction of p21 expression in human HeLa cells after 24 hrs. It counts as functional.
In assay [1] the target is T1, Protein deacetylase HDAC6 (Homo sapiens, UniProt Q9UBN7).
T1 sequence (Q9UBN7 whole entry): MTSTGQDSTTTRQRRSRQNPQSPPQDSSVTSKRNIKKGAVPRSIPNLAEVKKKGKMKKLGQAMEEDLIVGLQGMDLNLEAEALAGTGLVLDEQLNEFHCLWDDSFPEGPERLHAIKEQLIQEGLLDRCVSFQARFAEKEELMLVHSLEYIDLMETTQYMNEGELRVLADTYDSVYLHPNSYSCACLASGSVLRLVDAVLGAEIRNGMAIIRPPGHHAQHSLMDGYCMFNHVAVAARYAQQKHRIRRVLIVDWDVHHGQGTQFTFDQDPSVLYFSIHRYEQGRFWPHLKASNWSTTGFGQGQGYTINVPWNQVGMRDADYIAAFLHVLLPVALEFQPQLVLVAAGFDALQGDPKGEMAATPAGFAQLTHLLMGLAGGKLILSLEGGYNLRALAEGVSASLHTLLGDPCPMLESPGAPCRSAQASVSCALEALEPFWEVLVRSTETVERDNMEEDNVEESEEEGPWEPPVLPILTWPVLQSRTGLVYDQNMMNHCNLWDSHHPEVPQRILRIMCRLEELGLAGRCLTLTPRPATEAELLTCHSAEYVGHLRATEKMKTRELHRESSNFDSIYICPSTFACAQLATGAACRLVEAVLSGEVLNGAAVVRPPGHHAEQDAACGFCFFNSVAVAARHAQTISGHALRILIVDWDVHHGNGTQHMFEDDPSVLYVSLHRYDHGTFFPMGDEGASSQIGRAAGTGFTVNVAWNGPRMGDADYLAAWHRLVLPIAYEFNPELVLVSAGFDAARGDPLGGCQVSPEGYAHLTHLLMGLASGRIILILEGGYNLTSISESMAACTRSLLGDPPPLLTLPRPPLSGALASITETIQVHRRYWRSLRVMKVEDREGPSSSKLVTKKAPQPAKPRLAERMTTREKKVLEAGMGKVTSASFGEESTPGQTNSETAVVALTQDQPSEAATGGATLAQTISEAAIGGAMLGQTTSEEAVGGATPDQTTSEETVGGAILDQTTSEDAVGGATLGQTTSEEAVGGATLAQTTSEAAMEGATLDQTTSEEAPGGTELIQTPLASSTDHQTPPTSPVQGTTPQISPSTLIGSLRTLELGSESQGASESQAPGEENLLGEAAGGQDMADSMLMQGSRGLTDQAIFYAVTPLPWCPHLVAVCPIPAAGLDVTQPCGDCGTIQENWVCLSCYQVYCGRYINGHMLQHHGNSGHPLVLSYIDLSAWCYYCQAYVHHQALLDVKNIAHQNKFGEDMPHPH
As to the kind of experiment: Inhibition of human HDAC6 expressed in 293T cells. It counts as cell-based.

A further assay addresses Histone deacetylase 1 (Homo sapiens, UniProt Q13547). As to the kind of experiment: Inhibition of human HDAC1 expressed in 293T cells. In kind it is cell-based.
Another assay addresses Histone deacetylase 4 (Homo sapiens, UniProt P56524). As to the kind of experiment: Inhibition of human HDAC4 expressed in 293T cells. It counts as cell-based.
For a further assay, the species on record is Mus musculus. As to the kind of experiment: Antiangiogenic activity in mouse induced pluripotent stem cells. It counts as functional.

Sequence of Histone deacetylase 1 (Q13547 whole entry): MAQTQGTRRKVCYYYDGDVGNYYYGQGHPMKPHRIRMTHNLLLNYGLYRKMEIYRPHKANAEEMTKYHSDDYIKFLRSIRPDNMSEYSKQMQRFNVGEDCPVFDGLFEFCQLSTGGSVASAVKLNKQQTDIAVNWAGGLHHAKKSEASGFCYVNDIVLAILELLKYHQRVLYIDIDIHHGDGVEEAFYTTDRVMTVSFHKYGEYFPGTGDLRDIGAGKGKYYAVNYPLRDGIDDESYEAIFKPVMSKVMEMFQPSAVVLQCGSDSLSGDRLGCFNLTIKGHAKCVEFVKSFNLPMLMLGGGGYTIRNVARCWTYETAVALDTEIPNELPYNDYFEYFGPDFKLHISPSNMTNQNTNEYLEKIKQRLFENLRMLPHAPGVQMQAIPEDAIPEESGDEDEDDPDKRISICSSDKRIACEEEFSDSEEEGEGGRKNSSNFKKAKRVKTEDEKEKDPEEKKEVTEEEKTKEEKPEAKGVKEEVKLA
Sequence of Histone deacetylase 4 (P56524 whole entry): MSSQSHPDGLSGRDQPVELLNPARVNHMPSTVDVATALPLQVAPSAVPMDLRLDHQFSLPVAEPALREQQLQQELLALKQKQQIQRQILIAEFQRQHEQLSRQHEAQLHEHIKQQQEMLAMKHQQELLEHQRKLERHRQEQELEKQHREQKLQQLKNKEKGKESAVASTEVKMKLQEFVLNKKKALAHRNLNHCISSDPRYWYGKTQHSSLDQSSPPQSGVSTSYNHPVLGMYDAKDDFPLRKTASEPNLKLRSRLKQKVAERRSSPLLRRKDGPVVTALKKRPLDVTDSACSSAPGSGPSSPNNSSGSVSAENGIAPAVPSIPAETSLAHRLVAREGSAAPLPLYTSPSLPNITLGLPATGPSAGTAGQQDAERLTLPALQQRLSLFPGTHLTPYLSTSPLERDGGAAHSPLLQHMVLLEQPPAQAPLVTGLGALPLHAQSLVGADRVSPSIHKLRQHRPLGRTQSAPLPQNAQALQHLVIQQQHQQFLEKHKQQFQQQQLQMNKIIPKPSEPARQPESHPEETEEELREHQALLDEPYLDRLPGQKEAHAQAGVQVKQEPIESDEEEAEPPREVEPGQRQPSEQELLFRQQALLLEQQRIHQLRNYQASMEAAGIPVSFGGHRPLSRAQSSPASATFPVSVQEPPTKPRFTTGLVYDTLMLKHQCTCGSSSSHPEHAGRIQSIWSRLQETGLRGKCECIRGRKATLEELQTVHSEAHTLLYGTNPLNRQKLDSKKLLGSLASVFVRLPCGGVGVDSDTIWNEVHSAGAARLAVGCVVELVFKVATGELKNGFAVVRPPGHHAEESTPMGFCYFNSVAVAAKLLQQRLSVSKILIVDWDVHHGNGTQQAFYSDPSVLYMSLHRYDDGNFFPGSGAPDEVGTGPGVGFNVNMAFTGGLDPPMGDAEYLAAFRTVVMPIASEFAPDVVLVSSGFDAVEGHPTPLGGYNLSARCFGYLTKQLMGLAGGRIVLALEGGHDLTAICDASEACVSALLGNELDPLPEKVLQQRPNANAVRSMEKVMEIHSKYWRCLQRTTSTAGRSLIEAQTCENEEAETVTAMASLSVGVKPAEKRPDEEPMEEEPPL

As a reminder, the IC50 is the concentration that gives 50% inhibition. For `CC(C)[C@H]1NC(=O)[C@@H](C)[C@@H](C/C=C\CCC(=O)O)NC(=O)[C@@H](Cc2ccc(O)cc2)NC(=O)[C@@H](C)NC1=O` [AZUMAMIDE C], the EC1000 in the assay with HeLa is >25 µM. The IC50 in assay [1] is > 50 µM; against Histone deacetylase 1 it was 1170 nM; against Histone deacetylase 4 it was 3.16 µM.
The corresponding values for `CC(C)[C@H]1NC(=O)[C@@H](C)[C@@H](C/C=C\CCC(N)=O)NC(=O)[C@@H](Cc2ccccc2)NC(=O)[C@@H](C)NC1=O` [AZUMAMIDE A] are >25 µM, > 50 µM, > 50000 nM and > 50 µM.
Taken in the same sequence, the figures for `CC(C)[C@H]1NC(=O)[C@@H](C)[C@@H](C/C=C\CCC(N)=O)NC(=O)[C@@H](Cc2ccc(O)cc2)NC(=O)[C@@H](C)NC1=O` [AZUMAMIDE B] were >25 µM, > 50 µM, 1830 nM and 3.66 µM.
Molecule `CC(/C=C/C(=O)NO)=C\[C@@H](C)C(=O)c1ccc(N(C)C)cc1` [TRICHOSTATIN] displayed an EC1000 in the assay with HeLa of 0.0115 µM.
In the case of `C[C@@H]1C(=O)N[C@H](C)C(=O)N[C@H](C)C(=O)N[C@H](Cc2ccccc2)C(=O)N[C@@H]1C/C=C\CCC(N)=O` [AZUMAMIDE D], the EC1000 in the assay with HeLa is >25 µM. Further, the 50% inhibitory concentration (IC50) in assay [1] is > 50 µM; against Histone deacetylase 1 it was > 50000 nM; against Histone deacetylase 4, > 50 µM.
Regarding `CC(C)[C@H]1NC(=O)[C@@H](C)[C@@H](C/C=C\CCC(=O)O)NC(=O)[C@@H](Cc2ccccc2)NC(=O)[C@@H](C)NC1=O` [AZUMAMIDE E], the Activity entry in the assay filed under Mus musculus was “Dose-dependent effect”. Moreover, in the assay with HeLa, the EC1000 turned out to be 17 µM. Further, the IC50 in assay [1] was > 50 µM; at Histone deacetylase 4, 2.28 µM.
